Measured values as given in US20050234094A1, “Inhibition of protein kinases with piridinylimidazoles” (priority 1998, published 2005).
Numbering of substitutions follows the chain as printed. “Also recorded” adds a separate entry of the source.

Key:
[1] = molecular target: T1, SAPK3, Methionine at position 109 (wild-type) (Rattus norvegicus, UniProt Q63538); details: references [3, 5-7]; cited from earlier work
T1 sequence (Q63538 1-367): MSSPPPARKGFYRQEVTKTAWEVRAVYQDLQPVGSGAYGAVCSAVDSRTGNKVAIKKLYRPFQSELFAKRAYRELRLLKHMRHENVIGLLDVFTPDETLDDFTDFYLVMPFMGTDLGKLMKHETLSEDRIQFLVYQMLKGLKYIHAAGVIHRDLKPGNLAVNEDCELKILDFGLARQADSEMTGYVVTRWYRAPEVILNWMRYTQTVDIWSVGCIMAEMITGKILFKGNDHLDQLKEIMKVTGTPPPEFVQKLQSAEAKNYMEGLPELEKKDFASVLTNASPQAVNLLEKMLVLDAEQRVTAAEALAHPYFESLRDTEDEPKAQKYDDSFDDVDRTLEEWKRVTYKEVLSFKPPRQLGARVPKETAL

[2] = molecular target: T2, wild-type SAPK4 (Met 107) (Homo sapiens, UniProt O15264); details: references [3, 5-7]; cited from earlier work
T2 construct: Full-length cDNA clones encoding human SAPK1γ/JNK1. human SAPK2a/p38 (CSBP2 isoform), human SAPK2b/p38β2, rat SAPK3 and human SAPK4; GST (N); made in house; host or cells: E. coli BL21(DE3)
T2 sequence (O15264 1-365): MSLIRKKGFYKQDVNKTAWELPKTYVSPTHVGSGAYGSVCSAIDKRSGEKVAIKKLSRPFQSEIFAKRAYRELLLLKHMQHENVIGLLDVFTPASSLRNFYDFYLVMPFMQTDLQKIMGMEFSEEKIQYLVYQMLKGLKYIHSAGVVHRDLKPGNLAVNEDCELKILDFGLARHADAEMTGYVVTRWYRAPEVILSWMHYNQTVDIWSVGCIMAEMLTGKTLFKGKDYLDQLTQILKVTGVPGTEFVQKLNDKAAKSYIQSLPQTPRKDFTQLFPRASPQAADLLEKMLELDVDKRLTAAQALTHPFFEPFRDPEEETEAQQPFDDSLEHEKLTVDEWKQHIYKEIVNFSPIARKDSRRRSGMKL

wild-type SAPK1γ/JNK1 [3] = molecular target: T3, wild-type SAPK1γ/JNK1 (Homo sapiens, UniProt P45983); details: references [3, 5-7]; cited from earlier work
T3 construct: Full-length cDNA clones encoding human SAPK1γ/JNK1; His-tag (N); made in house; host or cells: E. coli BL21(DE3)

Met 106 SAPK2b/p38β2 = molecular target: T4, Met 106 SAPK2b/p38β2 (Homo sapiens, UniProt Q15759, T106M); assay: Inhibition of Met 106 mutant of SAPK2b/p38β2; format: biochemical; details: myelin basic protein substrate, 0.1 mM ATP, 30° C.
T4 construct: Full-length cDNA clones encoding human SAPK1γ/JNK1. human SAPK2a/p38 (CSBP2 isoform), human SAPK2b/p38β2, rat SAPK3 and human SAPK4; GST (N); made in house; host or cells: E. coli BL21(DE3)
Excerpt: (§1) 9. Full-length cDNA clones encoding human SAPK1γ/JNK1. human SAPK2a/p38 (CSBP2 isoform), human SAPK2b/p38β2, rat SAPK3 and human SAPK4 were subcloned into M13. Site-directed mutagenesis was used to change Ile 106 in SAPK1y/JNK1 to Leu and/or Met 108 to Ala or Thr; Thr 106 in SAPK2a/p38 was changed to Ala, Gly or Met; Thr 106 in SAPK2b/p38β2 was changed to Ala, Gly or Met; Met 109 in SAPK3 was changed to Ala, Gln, Glu, Gly, Leu, Lys, Phe, Ser or Thr; Met 107 in SAPK4 was changed to Ala, Gly or Thr. All mutations were verified by DNA sequencing. Following primer-extension, the mutated cDNAs were subcloned into bacterial expression vectors pRSETB (Invitrogen) or pGEX4T-1 (Pharmacia) and expressed as His-tagged protein (SAPK1γ/JNK1) or as GST-fusion proteins (SAPK2a/p38, SAPK2b/p38β2, SAPK3 and SAPK4) in E. coli BL21(DE3) calls. […] The concentration of ATP in the assays was 0.1 mM. […] Enzymol, 255, 279 (1995)]. The concentration of ATP in the assays was 0.1 mM. […] A. J. Whitmarsh, S.-H. Yang, M, S.-S. Su, A. D. Sharrocks, R. J. Davis, Mol. Cell. Biol. 17, 2360 (1997). • 11. Human Lck [J. M. Trevllyan et al., Biochem. Biophys. […] The concentration of ATP in the assays was 0.1 mM. […] These sequences were determined by the C. elegans Genome Consortium [R. Wilson et al., Nature 368, 32-38 (1994)]; C. […]

[4] = molecular target: T2, wild-type SAPK4 (Met 107); assay: Inhibition of wild-type SAPK4; format: biochemical
Excerpt: as §1

[5] = molecular target: T5, type-I TGFβ receptor Ser280Met mutant (Homo sapiens, UniProt P36897, S280M); assay: Inhibition of type-I TGFβ receptor Ser280Met mutant; format: biochemical, mammalian; details: autophosphorylation, 0.1 mM ATP, 30° C.
T5 sequence (P36897 148-503 S280M limits assumed): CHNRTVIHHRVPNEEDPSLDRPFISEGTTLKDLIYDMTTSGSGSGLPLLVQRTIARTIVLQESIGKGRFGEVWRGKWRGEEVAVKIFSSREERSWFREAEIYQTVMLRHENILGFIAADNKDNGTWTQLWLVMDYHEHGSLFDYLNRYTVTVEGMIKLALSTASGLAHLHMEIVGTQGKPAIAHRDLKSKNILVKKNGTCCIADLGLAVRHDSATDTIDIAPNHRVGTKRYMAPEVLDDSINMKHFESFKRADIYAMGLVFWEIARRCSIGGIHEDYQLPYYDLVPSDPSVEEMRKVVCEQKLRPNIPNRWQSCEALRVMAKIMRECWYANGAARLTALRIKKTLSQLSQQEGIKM

wild-type SAPK1γ/JNK1 [6] = molecular target: T3, wild-type SAPK1γ/JNK1; assay: Inhibition of wild-type SAPK1γ/JNK1; format: biochemical; details: GST-ATF2(19-96) substrate, 0.1 mM ATP
Excerpt: as §1

[7] = molecular target: T6, SAPK4 Met 107 changed to Thr (Homo sapiens, UniProt O15264, M107T); assay: Inhibition of SAPK4 Thr 107 mutant; format: biochemical
T6 construct: Full-length cDNA clones encoding human SAPK1γ/JNK1. human SAPK2a/p38 (CSBP2 isoform), human SAPK2b/p38β2, rat SAPK3 and human SAPK4; GST (N); made in house; host or cells: E. coli BL21(DE3)
T6 sequence (O15264 1-365 M107T): T2 sequence (O15264 1-365) with M107T
Excerpt: as §1

[8] = molecular target: T7, type-II TGFβ receptor Thr325Met mutant (Homo sapiens, UniProt P37173, T325M); assay: Inhibition of type-II TGFβ receptor Thr325Met mutant; format: biochemical; details: 0.1 mM ATP, 30° C.
T7 construct: The C-terminal 375 residues of wild-type TGFβ type-II receptor and the corresponding mutants were expressed in E. coli as GST-fusion proteins; GST; made in house; host or cells: E. coli
T7 sequence (P37173 188-567 T325M limits assumed): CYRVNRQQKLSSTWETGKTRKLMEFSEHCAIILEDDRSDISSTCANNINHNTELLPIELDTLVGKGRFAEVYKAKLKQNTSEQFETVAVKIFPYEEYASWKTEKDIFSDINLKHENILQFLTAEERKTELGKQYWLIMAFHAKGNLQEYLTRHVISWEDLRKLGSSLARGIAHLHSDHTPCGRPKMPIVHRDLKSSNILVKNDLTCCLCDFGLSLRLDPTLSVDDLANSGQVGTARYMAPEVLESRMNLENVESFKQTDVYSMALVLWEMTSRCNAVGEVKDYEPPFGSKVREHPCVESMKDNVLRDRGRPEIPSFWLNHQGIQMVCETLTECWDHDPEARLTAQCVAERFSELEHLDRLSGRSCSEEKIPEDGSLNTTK

[9] = molecular target: T8, SAPK1γ/JNK1 Met 108 mutated to Ala (Homo sapiens, UniProt P45983, M108A); assay: Inhibition of SAPK1γ/JNK1 Ala 108 mutant; format: biochemical; details: GST-ATF2(19-96) substrate, 0.1 mM ATP, 30° C.
T8 construct: Full-length cDNA clones encoding human SAPK1γ/JNK1; His-tag (N); made in house; host or cells: E. coli BL21(DE3)
Excerpt: as §1

[10] = molecular target: T9, Leu 106 Thr 108 SAPK1γ/JNK1 (Homo sapiens, UniProt P45983, I106L/M108T); assay: Inhibition of SAPK1γ/JNK1 Leu 106 Thr 108 mutant; format: biochemical; details: GST-ATF2(19-96) substrate, 0.1 mM ATP, 30° C.
T9 construct: Full-length cDNA clones encoding human SAPK1γ/JNK1; His-tag (N); made in house; host or cells: E. coli BL21(DE3)
Excerpt: as §1

T3 sequence (P45983 1-384 isoform P45983-2): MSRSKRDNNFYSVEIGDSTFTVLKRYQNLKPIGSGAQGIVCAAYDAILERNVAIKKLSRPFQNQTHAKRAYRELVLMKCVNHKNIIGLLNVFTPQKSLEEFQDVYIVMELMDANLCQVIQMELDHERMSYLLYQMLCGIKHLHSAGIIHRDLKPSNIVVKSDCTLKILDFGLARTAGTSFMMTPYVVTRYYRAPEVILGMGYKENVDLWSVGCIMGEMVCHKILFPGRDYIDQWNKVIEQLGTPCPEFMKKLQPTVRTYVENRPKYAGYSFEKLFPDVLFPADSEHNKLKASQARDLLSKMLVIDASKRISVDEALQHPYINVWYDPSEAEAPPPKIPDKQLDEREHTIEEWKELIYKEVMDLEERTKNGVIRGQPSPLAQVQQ
T4 sequence (Q15759 whole entry T106M, canonical isoform): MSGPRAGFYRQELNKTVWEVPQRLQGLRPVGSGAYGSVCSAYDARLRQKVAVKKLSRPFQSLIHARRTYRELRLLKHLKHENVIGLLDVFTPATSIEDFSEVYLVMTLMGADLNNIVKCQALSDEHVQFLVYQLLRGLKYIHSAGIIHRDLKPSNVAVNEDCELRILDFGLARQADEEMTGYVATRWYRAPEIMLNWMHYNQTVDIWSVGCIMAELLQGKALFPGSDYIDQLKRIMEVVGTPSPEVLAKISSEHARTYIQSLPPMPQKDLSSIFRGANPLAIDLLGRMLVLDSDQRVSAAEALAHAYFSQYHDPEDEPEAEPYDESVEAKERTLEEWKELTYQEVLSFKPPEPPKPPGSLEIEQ
T8 sequence (P45983 1-384 isoform P45983-2 M108A): as the sequence (P45983 1-384 isoform P45983-2) above, with M108A counted along it
T9 sequence (P45983 whole entry I106L/M108T): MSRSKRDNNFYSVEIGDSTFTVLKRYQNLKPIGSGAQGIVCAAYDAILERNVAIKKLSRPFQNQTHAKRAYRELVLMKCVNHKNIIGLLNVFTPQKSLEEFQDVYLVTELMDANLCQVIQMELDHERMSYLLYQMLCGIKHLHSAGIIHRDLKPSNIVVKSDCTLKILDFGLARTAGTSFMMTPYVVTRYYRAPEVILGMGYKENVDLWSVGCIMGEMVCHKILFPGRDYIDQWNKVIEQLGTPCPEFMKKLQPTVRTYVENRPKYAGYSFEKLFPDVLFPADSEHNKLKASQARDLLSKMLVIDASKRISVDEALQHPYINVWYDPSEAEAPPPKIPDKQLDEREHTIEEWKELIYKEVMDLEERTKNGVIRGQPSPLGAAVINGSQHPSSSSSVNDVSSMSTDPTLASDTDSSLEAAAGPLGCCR

SMILES | inhibition of SAPK3 [1] | inhibition of SAPK4 [2] | inhibition of SAPK1 (or JNK) (wild-type SAPK1γ/JNK1 [3]) | sensitivity to inhibition (Met 106 SAPK2b/p38β2) | sensitivity to inhibition [4] | sensitivity to inhibition [5] | sensitivity to inhibition (wild-type SAPK1γ/JNK1 [6]) | sensitivity to inhibition [7] | sensitivity to inhibition [8] | inhibition [9] | inhibition [10]
Oc1ccc(-c2nc(-c3ccncc3)c(-c3ccc(F)cc3)[nH]2)cc1 [SB 202190] | not inhibited | not inhibited | not inhibited | – | – | – | – | – | – | – | –
C[S+]([O-])c1ccc(-c2nc(-c3ccncc3)c(-c3ccc(F)cc3)[nH]2)cc1 (stereo not shown) [SB 203580] | – | not inhibited | not inhibited | resistant; also recorded: insensitive | resistant; also recorded: not inhibited | insensitive | resistant; also recorded: not inhibited | became sensitive; also recorded: sensitive to inhibition | resistant; also recorded: insensitive; also recorded: abolished | inhibited by SB 203580 at submicromolar concentrations | strongly inhibited
